IC50 data for 16 molecules are collected here from patent US20100016401A1, “3-AZA-BICYCLO[3.1.0]HEXANE DERIVATIVES” (Actelion Phamaceuticals Ltd., priority 2006, published 2010).

One test concerns the target T1, human orexin-1 receptor (Homo sapiens, UniProt O43613).
T1 construct: expressed in transfected cells; host or cells: CHO (Chinese hamster ovary) cells, grown under G418 selection
T1 sequence (O43613 1-425): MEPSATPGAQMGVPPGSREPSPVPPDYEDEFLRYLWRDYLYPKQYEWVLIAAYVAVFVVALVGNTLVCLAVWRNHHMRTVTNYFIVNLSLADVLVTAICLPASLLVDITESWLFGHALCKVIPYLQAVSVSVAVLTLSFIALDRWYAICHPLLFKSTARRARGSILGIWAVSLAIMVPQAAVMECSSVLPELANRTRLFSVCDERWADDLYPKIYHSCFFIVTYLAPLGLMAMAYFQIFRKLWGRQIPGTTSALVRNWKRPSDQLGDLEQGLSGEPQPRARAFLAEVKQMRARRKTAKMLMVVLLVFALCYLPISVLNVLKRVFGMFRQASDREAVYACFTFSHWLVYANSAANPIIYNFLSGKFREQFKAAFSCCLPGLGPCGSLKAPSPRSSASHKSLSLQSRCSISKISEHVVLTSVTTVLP
The experiment in a line: Intracellular calcium measurements (FLIPR), orexin receptor antagonistic activity, OX1. Type of test: cell-based. The settings on record: CHO cells expressing human orexin-1 receptor, 10 nM orexin-A as agonist. On the procedure:
(§1) The orexin receptor antagonistic activity of the compounds of formula (I) is determined in accordance with the following experimental method.
(§2) Intracellular Calcium Measurements:
(§3) Chinese hamster ovary (CHO) cells expressing the human orexin-1 receptor and the human orexin-2 receptor, respectively, are grown in culture medium (Ham F-12 with L-Glutamine) containing 300 μg/ml G418, 100 U/ml penicillin, 100 μg/ml streptomycin and 10% inactivated fetal calf serum (FCS). The cells are seeded at 80,000 cells/well into 96-well black clear bottom sterile plates (Costar) which have been precoated with 1% gelatine in Hanks' Balanced Salt Solution (HBSS). All reagents are from Gibco BRL. The seeded plates are incubated overnight at 37° C. in 5% CO2.
(§4) Human orexin-A as an agonist is prepared as 1 mM stock solution in MeOH: water (1:1), diluted in HBSS containing 0.1% bovine serum albumin (BSA) and 2 mM HEPES for use in the assay at a final concentration of 10 nM.
(§5) Antagonists are prepared as 10 mM stock solution in DMSO, then diluted in 96-well plates, first in DMSO, then in HBSS containing 0.1% bovine serum albumin (BSA) and 2 mM HEPES.
(§6) On the day of the assay, 100 μl of loading medium (HBSS containing 1% FCS, 2 mM HEPES, 5 mM probenecid (Sigma) and 3 μM of the fluorescent calcium indicator fluo-3 AM (1 mM stock solution in DMSO with 10% pluronic acid) (Molecular Probes) is added to each well.
(§7) The 96-well plates are incubated for 60 min at 37° C. in 5% CO2. The loading solution is then aspirated and cells are washed 3 times with 200 μl HBSS containing 2.5 mM probenecid, 0.1% BSA, 2 mM HEPES. 100 μl of that same buffer is left in each well.
(§8) Within the Fluorescent Imaging Plate Reader (FLIPR, Molecular Devices), antagonists are added to the plate in a volume of 50 μl, incubated for 20 min and finally 100 μl of agonist is added. Fluorescence is measured for each well at 1 second intervals, and the height of each fluorescence peak is compared to the height of the fluorescence peak induced by 10 nM orexin-A with buffer in place of antagonist.

For another test, the target named is T2, human orexin-2 receptor (Homo sapiens, UniProt O43614).
T2 construct: expressed in transfected cells; host or cells: CHO (Chinese hamster ovary) cells, grown under G418 selection
T2 sequence (O43614 1-444): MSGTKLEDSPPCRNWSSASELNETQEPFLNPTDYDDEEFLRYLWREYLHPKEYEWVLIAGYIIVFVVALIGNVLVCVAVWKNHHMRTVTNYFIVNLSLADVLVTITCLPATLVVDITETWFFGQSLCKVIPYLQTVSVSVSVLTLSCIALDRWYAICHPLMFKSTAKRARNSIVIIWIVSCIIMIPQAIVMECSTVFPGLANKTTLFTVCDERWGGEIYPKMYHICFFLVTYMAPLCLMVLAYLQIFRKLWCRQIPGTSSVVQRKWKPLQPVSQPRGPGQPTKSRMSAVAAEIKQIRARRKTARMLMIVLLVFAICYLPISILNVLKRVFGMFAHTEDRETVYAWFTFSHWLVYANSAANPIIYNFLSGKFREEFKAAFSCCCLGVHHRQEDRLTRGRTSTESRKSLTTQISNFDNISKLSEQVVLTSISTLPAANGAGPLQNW
Briefly: Intracellular calcium measurements (FLIPR), orexin receptor antagonistic activity, OX2. In kind it is cell-based. Particulars: CHO cells expressing human orexin-2 receptor, 10 nM orexin-A as agonist. On the procedure:
as §1, §2, §3, §4, §5, §6, §7, §8

The IC50 is the concentration at which inhibition is half-maximal.

Molecules are shown by their SMILES.

As to `Cc1cccc(-c2sc(C)nc2C(=O)N2C[C@H]3C[C@H]3[C@H]2CNC(=O)c2cccc(C(F)(F)F)c2)c1` (relative stereo) [Example 125, N-[(1R*,2S*,5S*)-3-(2-Methyl-5-m-tolyl-thiazole-4-carbonyl)-3-aza-bicyclo[3.1.0]hex-2-ylmethyl]-3-trifluoromethyl-benzamide], the IC50 at human orexin-1 receptor is 98 nM; at human orexin-2 receptor it was 102 nM.
`Cc1cccc(-c2sc(C)nc2C(=O)N2C[C@H]3C[C@H]3[C@H]2CNC(=O)c2ccc(F)cc2Cl)c1` (relative stereo) [Example 141, 2-Chloro-4-fluoro-N-[(1R*,2S*,5S*)-3-(2-methyl-5-m-tolyl-thiazole-4-carbonyl)-3-aza-bicyclo[3.1.0]hex-2-ylmethyl]-benzamide]: the IC50 at human orexin-1 receptor came out at 76 nM; on human orexin-2 receptor, 14 nM.
The like results for `Cc1cccc(-c2sc(C)nc2C(=O)N2C[C@H]3C[C@H]3[C@H]2CNC(=O)c2cccc(C)c2Cl)c1` (relative stereo) [Example 143, 2-Chloro-3-methyl-N-[(1R*,2S*,5S*)-3-(2-methyl-5-m-tolyl-thiazole-4-carbonyl)-3-aza-bicyclo[3.1.0]hex-2-ylmethyl]-benzamide] were, in that order, 507 nM and 17 nM.
As for `Cc1cccc(-c2sc(C)nc2C(=O)N2C[C@H]3C[C@H]3[C@H]2CNC(=O)c2ccc(C)c(C(F)(F)F)c2)c1` (relative stereo) [Example 146, 4-Methyl-N-[(1R*,2S*,5S*)-3-(2-methyl-5-m-tolyl-thiazole-4-carbonyl)-3-aza-bicyclo[3.1.0]hex-2-ylmethyl]-3-trifluoromethyl-benzamide], the IC50 was determined as 54 nM on human orexin-1 receptor and 55 nM at human orexin-2 receptor.
The like results for `Cc1cccc(-c2sc(C)nc2C(=O)N2C[C@H]3C[C@H]3[C@H]2CNC(=O)c2ccccc2N2CCOCC2)c1` (relative stereo) [Example 154, N-[(1R*,2S*,5S*)-3-(2-Methyl-5-m-tolyl-thiazole-4-carbonyl)-3-aza-bicyclo[3.1.0]hex-2-ylmethyl]-2-morpholin-4-yl-benzamide] were, in that order, 201 nM and 237 nM.
As for `Cc1cccc(-c2sc(C)nc2C(=O)N2C[C@H]3C[C@H]3[C@H]2CNC(=O)c2cccc3c2C=CCO3)c1` (relative stereo) [Example 178, 2H-Chromene-5-carboxylic acid [(1R*,2S*,5S*)-3-(2-methyl-5-m-tolyl-thiazole-4-carbonyl)-3-aza-bicyclo[3.1.0]hex-2-ylmethyl]-amide], the results for the concentration for half-maximal inhibition (IC50) on human orexin-1 receptor and at human orexin-2 receptor were 43 nM and 33 nM, respectively.
Regarding `Cc1cccc(-c2sc(C)nc2C(=O)N2C[C@H]3C[C@H]3[C@H]2CNC(=O)c2cccc3c2OCCN3C)c1` (relative stereo) [Example 179, 4-Methyl-3,4-dihydro-2H-benzo[1,4]oxazine-8-carboxylic acid [(1R*,2S*,5S*)-3-(2-methyl-5-m-tolyl-thiazole-4-carbonyl)-3-aza-bicyclo[3.1.0]hex-2-ylmethyl]-amide], the IC50 on human orexin-1 receptor came to 237 nM; on human orexin-2 receptor, 76 nM.
With `Cc1cccc(-c2sc(C)nc2C(=O)N2C[C@H]3C[C@H]3[C@H]2CNC(=O)c2cccc3c2NC(=O)CO3)c1` (relative stereo) [Example 181, 3-Oxo-3,4-dihydro-2H-benzo[1,4]oxazine-5-carboxylic acid [(1R*,2S*,5S*)-3-(2-methyl-5-m-tolyl-thiazole-4-carbonyl)-3-aza-bicyclo[3.1.0]hex-2-ylmethyl]-amide], the IC50 worked out at 90 nM at human orexin-1 receptor and 154 nM at human orexin-2 receptor.
The like results for `Cc1cccc(-c2sc(C)nc2C(=O)N2C[C@H]3C[C@H]3[C@H]2CNC(=O)c2cccc3c2CCCO3)c1` (relative stereo) [Example 182, Chroman-5-carboxylic acid [(1R*,2S*,5S*)-3-(2-methyl-5-m-tolyl-thiazole-4-carbonyl)-3-aza-bicyclo[3.1.0]hex-2-ylmethyl]-amide] were, in that order, 241 nM and 196 nM.
As for `Cc1nc(C(=O)N2C[C@H]3C[C@H]3[C@H]2CNC(=O)c2cnc3ccccn23)c(-c2cccc(Cl)c2)s1` (relative stereo) [Example 203, Imidazo[1,2-a]pyridine-3-carboxylic acid {(1R*,2S*,5S*)-3-[5-(3-chloro-phenyl)-2-methyl-thiazole-4-carbonyl]-3-aza-bicyclo[3.1.0]hex-2-ylmethyl}-amide], the IC50 on human orexin-1 receptor stood at 42 nM; at human orexin-2 receptor, 92 nM.
For `Cc1nc(C(=O)N2C[C@H]3C[C@H]3[C@H]2CNC(=O)c2cnc3sccn23)c(-c2cccc(F)c2)s1` (relative stereo) [Example 214, Imidazo[2,1-b]thiazole-5-carboxylic acid {(1R*,2S*,5S*)-3-[5-(3-fluoro-phenyl)-2-methyl-thiazole-4-carbonyl]-3-aza-bicyclo[3.1.0]hex-2-ylmethyl}-amide], in that order: 37 nM and 17 nM.
The like results for `Cc1nc(C(=O)N2C[C@H]3C[C@H]3[C@H]2CNC(=O)c2cccc3c2OCO3)c(-c2cccc(F)c2)s1` (relative stereo) [Example 242, Benzo[1,3]dioxole-4-carboxylic acid {(1R*,2S*,5S*)-3-[5-(3-fluoro-phenyl)-2-methyl-thiazole-4-carbonyl]-3-aza-bicyclo[3.1.0]hex-2-ylmethyl}-amide] were, in that order, 963 nM and 59 nM.
As to `Cc1nc(C(=O)N2C[C@H]3C[C@H]3[C@H]2CNC(=O)c2cccc3c2OCCO3)c(-c2cccc(F)c2)s1` (relative stereo) [Example 256, 2,3-Dihydro-benzo[1,4]dioxine-5-carboxylic acid {(1R*,2S*,5S*)-3-[5-(3-fluoro-phenyl)-2-methyl-thiazole-4-carbonyl]-3-aza-bicyclo[3.1.0]hex-2-ylmethyl}-amide], the IC50 on human orexin-1 receptor came to 111 nM; on human orexin-2 receptor, 14 nM.
For `Cc1cccc(-c2sc(N)nc2C(=O)N2C[C@H]3C[C@H]3[C@H]2CNC(=O)c2sc3nccn3c2C)c1` (relative stereo) [Example 274, 3-Methyl-imidazo[2,1-b]thiazole-2-carboxylic acid [(1R*,2S*,5S*)-3-(2-amino-5-m-tolyl-thiazole-4-carbonyl)-3-aza-bicyclo[3.1.0]hex-2-ylmethyl]-amide], in that order: 31 nM and 87 nM.
The like results for `Cc1cccc(-c2sc(N)nc2C(=O)N2C[C@H]3C[C@H]3[C@H]2CNC(=O)c2scc3c2OCCO3)c1` (relative stereo) [Example 284, 2,3-Dihydro-thieno[3,4-b][1,4]dioxine-5-carboxylic acid [(1R*,2S*,5S*)-3-(2-amino-5-m-tolyl-thiazole-4-carbonyl)-3-aza-bicyclo[3.1.0]hex-2-ylmethyl]-amide] were, in that order, 33 nM and 15 nM.
Consider `COCCOc1cccc(-c2sc(C)nc2C(=O)N2C[C@H]3C[C@H]3[C@H]2CNC(=O)c2cccc3occc23)c1` (relative stereo) [Example 333, Benzofuran-4-carboxylic acid ((1R*,2S*,5S*)-3-{5-[3-(2-methoxy-ethoxy)-phenyl]-2-methyl-thiazole-4-carbonyl}-3-aza-bicyclo[3.1.0]hex-2-ylmethyl)-amide], for which the 50% inhibitory concentration (IC50) on human orexin-1 receptor came out at 954 nM; on human orexin-2 receptor, 172 nM.
